The values below come from patent US11439622B2 (OXFORD UNIVERSITY INNOVATION LIMITED, priority 2015, dated 2022).

Some results are limits rather than exact numbers.

Common to all, as to format: biochemical
The target of test [1] is VIM-2 (Veronese metallo-β-lactamase-2) (Escherichia coli, UniProt Q5U7L7). The test can be described thus: Enzyme inhibition assay, VIM-2. The following applies: read-out: pIC50 VIM-2 (converted). How it is done:
(§1) The biological activity of the compounds of the present invention was tested using standard assay protocols.^7 The following representative enzymes NDM-1 (New Delhi metallo-β-lactamase-1), IMP-1 (Imipenemase-1) and VIM-2 (Veronese metallo-β-lactamase-2) were selected from different clinically relevant B1 metallo-β-lactamases.

A further test concerns the target IMP-1 (Imipenemase-1) (Serratia marcescens, UniProt P52699). The test can be described thus: Enzyme inhibition assay, IMP-1. The following applies: read-out: pIC50 IMP-1 (converted). On the procedure:
as §1

Test [2] deals with NDM-1 (New Delhi metallo-β-lactamase-1) (Klebsiella pneumoniae, UniProt C7C422). As to the kind of experiment: Enzyme inhibition assay, NDM-1. The following applies: read-out: pIC50 NDM-1 (converted). On the procedure:
as §1

Chain of IMP-1 (Imipenemase-1) (P52699 19-246, looked up, species assumed): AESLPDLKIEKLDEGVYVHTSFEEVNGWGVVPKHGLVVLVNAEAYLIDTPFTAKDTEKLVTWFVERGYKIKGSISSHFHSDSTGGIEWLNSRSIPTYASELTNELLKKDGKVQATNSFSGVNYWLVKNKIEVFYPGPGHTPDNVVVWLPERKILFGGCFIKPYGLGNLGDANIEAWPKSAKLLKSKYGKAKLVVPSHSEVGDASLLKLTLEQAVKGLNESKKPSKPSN
Chain of NDM-1 (New Delhi metallo-β-lactamase-1) (C7C422 29-270, looked up, species assumed): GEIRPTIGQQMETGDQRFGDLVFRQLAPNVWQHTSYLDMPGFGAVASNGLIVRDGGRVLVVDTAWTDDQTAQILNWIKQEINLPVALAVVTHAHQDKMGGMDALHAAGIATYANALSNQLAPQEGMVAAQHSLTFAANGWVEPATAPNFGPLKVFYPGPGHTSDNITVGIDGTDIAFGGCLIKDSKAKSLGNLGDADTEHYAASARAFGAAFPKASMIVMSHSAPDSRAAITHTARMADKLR

Turning to `CC(C)c1cccc2c(-c3ccc(C(N)=O)cc3)c(C(=O)O)[nH]c12` [Example 69, 3-(4-carbamoylphenyl)-7-isopropyl-1H-indole-2-carboxylic acid], the IC50 in test [1] is 7.94 nM; at IMP-1 (Imipenemase-1), 12.6 nM; in test [2], 2.51 nM.
With `O=C(O)c1[nH]c2c(CCO)cccc2c1-c1ccc(F)cc1` [Example 108, 3-(4-fluorophenyl)-7-(2-hydroxyethyl)-1H-indole-2-carboxylic acid], the IC50 is 794 nM in test [1], 3160 nM at IMP-1 (Imipenemase-1) and 50.1 nM in test [2].
Regarding `COc1ccc(-c2c(C(=O)O)[nH]c3c(C)cccc23)cc1` [Example 9, 3-(4-methoxyphenyl)-7-methyl-1H-indole-2-carboxylic acid], the IC50 in test [1] was 251 nM; at IMP-1 (Imipenemase-1) it was 7940 nM; in test [2] it was 50.1 nM.
On the same counts, the results for `O=C(O)c1[nH]c2c(Cl)cccc2c1-c1ccc(F)cc1` [Example 54, 7-chloro-3-(4-fluorophenyl)-1H-indole-2-carboxylic acid] are 794 nM, 31600 nM and 251 nM.
For `CC(C)c1cccc2c(-c3ccncc3)c(C(=O)O)[nH]c12` [Example 68, 7-isopropyl-3-(pyridin-4-yl)-1H-indole-2-carboxylic acid] the same measures were 31.6 nM, 39.8 nM and 6.31 nM.
On the same counts, the results for `CC(=O)Nc1ccc(-c2c(C(=O)O)[nH]c3c(C)cccc23)cc1` [Example 30, 3-(4-acetamidophenyl)-7-methyl-1H-indole-2-carboxylic acid] are 158 nM, 2510 nM and 20 nM.
Consider `CC(C)c1cccc2c(-c3ccc(S(=O)(=O)N(C)C)cc3)c(C(=O)O)[nH]c12` [Example 73], for which the IC50 in test [1] was 31.6 nM; at IMP-1 (Imipenemase-1), 31.6 nM; in test [2], 0.355 nM.
For `O=C(O)c1[nH]c2c(C3CC3)cccc2c1-c1ccc(F)cc1` [Example 106, 7-cyclopropyl-3-(4-fluorophenyl)-1H-indole-2-carboxylic acid], the IC50 in test [1] was 50.1 nM; on IMP-1 (Imipenemase-1), 501 nM; in test [2] it was 12.6 nM.
For `Cc1cccc2c(-c3ccc(OC(F)(F)F)cc3)c(C(=O)O)[nH]c12` [Example 2, 7-methyl-3-(4-(trifluoromethoxy)phenyl)-1H-indole-2-carboxylic acid] the same measures were 398 nM, 7940 nM and 50.1 nM.
On the same counts, the results for `Cc1c(Oc2ccccc2)ccc2c(-c3ccc(S(=O)(=O)N(C)C)cc3)c(C(=O)O)[nH]c12` [Example 82, 3-(4-(N,N-dimethylsulfamoyl)phenyl)-7-methyl-6-phenoxy-1H-indole-2-carboxylic acid] are 158 nM, 501 nM and 3.98 nM.
Consider `Cc1ccc2c(-c3ccc(C(N)=O)cc3)c(C(=O)O)[nH]c2c1` [Example 48, 3-(4-carbamoylphenyl)-6-methyl-1H-indole-2-carboxylic acid], for which the IC50 in test [1] is 3980 nM; at IMP-1 (Imipenemase-1), more than 100000 nM; in test [2], 631 nM.
For `COc1ccc2c(-c3ccc(F)cc3)c(C(=O)O)[nH]c2c1C` [Example 55, 3-(4-fluorophenyl)-6-methoxy-7-methyl-1H-indole-2-carboxylic acid] the same measures were 398 nM, 2000 nM and 25.1 nM.
On the same counts, the results for `CC(C)c1cccc2c(-c3ccc(C(=O)N(C)C)cc3)c(C(=O)O)[nH]c12` [Example 74, 3-(4-(dimethylcarbamoyl)phenyl)-7-isopropyl-1H-indole-2-carboxylic acid] are 79.4 nM, 20 nM and 0.562 nM.
On the same counts, the results for `COc1cccc2c(-c3ccc(F)cc3)c(C(=O)O)[nH]c12` [Example 50, 3-(4-fluorophenyl)-7-methoxy-1H-indole-2-carboxylic acid] are 1000 nM, 25100 nM and 251 nM.
For `CC(C)c1cccc2c(-c3ccccc3Cl)c(C(=O)O)[nH]c12` [Example 72, 3-(2-chlorophenyl)-7-isopropyl-1H-indole-2-carboxylic acid], the IC50 in test [1] was 12.6 nM; on IMP-1 (Imipenemase-1) it was 2510 nM; in test [2] it was 50.1 nM.
As to `Cc1cccc2c(-c3cccc(S(C)(=O)=O)c3)c(C(=O)O)[nH]c12` [Example 16, 7-methyl-3-(3-(methylsulfonyl)phenyl)-1H-indole-2-carboxylic acid], the IC50 in test [1] was 794 nM; on IMP-1 (Imipenemase-1), 12600 nM; in test [2], 50.1 nM.
On the same counts, the results for `Cc1cccc2c(-c3cc(Cl)cc(Cl)c3)c(C(=O)O)[nH]c12` [Example 3, 3-(3,5-dichlorophenyl)-7-methyl-1H-indole-2-carboxylicacid] are less than 5.01 nM, 5010 nM and 39.8 nM.
For `CC(C)c1cccc2c(-c3ccc(Cn4cncn4)cc3)c(C(=O)O)[nH]c12` [Example 80, 3-(4-((1H-1,2,4-triazol-1-yl)methyl)phenyl)-7-isopropyl-1H-indole-2-carboxylic acid] the same measures were 10 nM, 20 nM and 0.631 nM.
For `Cc1noc(C)c1-c1c(C(=O)O)[nH]c2c(C)cccc12` [Example 117, 3-(3,5-dimethylisoxazol-4-yl)-7-methyl-1H-indole-2-carboxylic acid] the same measures were 200 nM, more than 100000 nM and 1260 nM.
As for `Cc1cccc2c(-c3ccc(F)cc3)c(C(=O)O)[nH]c12` [Example 49, 3-(4-fluorophenyl)-7-methyl-1H-indole-2-carboxylic acid], the IC50 was 501 nM in test [1], 15800 nM on IMP-1 (Imipenemase-1) and 31.6 nM in test [2].
For `Cc1cccc2c(-c3cccnc3)c(C(=O)O)[nH]c12` [Example 24, 7-methyl-3-(pyridin-3-yl)-1H-indole-2-carboxylic acid] the same measures were 631 nM, 12600 nM and 100 nM.
As to `Cc1cccc2c(-c3cccc4[nH]ncc34)c(C(=O)O)[nH]c12` [Example 31, 3-(1H-indazol-4-yl)-7-methyl-1H-indole-2-carboxylic acid], the IC50 in test [1] is 39.8 nM; on IMP-1 (Imipenemase-1), 63100 nM; in test [2], 63.1 nM.
On the same counts, the results for `Cc1cccc2c(-c3cccc(N(C)C)c3)c(C(=O)O)[nH]c12` [Example 17, 3-(3-(dimethylamino)phenyl)-7-methyl-1H-indole-2-carboxylic acid] are 501 nM, more than 100000 nM and 200 nM.
On the same counts, the results for `CCCc1cccc2c(-c3ccc(F)cc3)c(C(=O)O)[nH]c12` [Example 52, 3-(4-fluorophenyl)-7-propyl-1H-indole-2-carboxylic acid] are 316 nM, 316 nM and 20 nM.
For `Cc1cccc2c(C3CCCC3)c(C(=O)O)[nH]c12` [Example 104, 3-cyclopentyl-7-methyl-1H-indole-2-carboxylic acid] the same measures were 12600 nM, 50100 nM and 251 nM.
Turning to `Cc1cccc2c(-c3ccc(Cn4cccn4)cc3)c(C(=O)O)[nH]c12` [Example 34, 3-(4-((1H-pyrazol-1-yl)methyl)phenyl)-7-methyl-1H-indole-2-carboxylicacid], the IC50 in test [1] was 200 nM; on IMP-1 (Imipenemase-1), 50.1 nM; in test [2], 10000 nM.
On the same counts, the results for `CC(C)c1cccc2c(-c3ccc(C(=O)O)cc3)c(C(=O)O)[nH]c12` [Example 91, 3-(4-carboxyphenyl)-7-isopropyl-1H-indole-2-carboxylic acid] are 7.24 nM, 44.7 nM and 3.39 nM.
For the compound `CNS(=O)(=O)c1ccc(-c2c(C(=O)O)[nH]c3c(C(C)C)cccc23)cc1` [Example 88, 7-isopropyl-3-(4-(N-methylsulfamoyl)phenyl)-1H-indole-2-carboxylic acid], the IC50 in test [1] is 10.2 nM; at IMP-1 (Imipenemase-1), 53.7 nM; in test [2], 4.27 nM.
As to `COc1cccc(-c2c(C(=O)O)[nH]c3c(C)cccc23)c1OC` [Example 116, 3-(2,3-dimethoxyphenyl)-7-methyl-1H-indole-2-carboxylic acid], the IC50 in test [1] is 39.8 nM; at IMP-1 (Imipenemase-1), more than 100000 nM; in test [2], 1260 nM.
Turning to `Cc1cccc2c(-c3ccc(Br)cc3)c(C(=O)O)[nH]c12` [Example 10, 3-(4-bromophenyl)-7-methyl-1H-indole-2-carboxylic acid], the IC50 is 200 nM in test [1], 7940 nM on IMP-1 (Imipenemase-1) and 25.1 nM in test [2].
For `Cc1cccc2c(C3CCN(C(=O)OC(C)(C)C)CC3)c(C(=O)O)[nH]c12` [Example 105, 3-(1-tert-butoxycarbonyl-4-piperidyl)-7-methyl-1H-indole-2-carboxylic acid] the same measures were 2510 nM, 31600 nM and 158 nM.
For `Cc1ccc2c(-c3ccc(F)cc3)c(C(=O)O)[nH]c2c1C` [Example 56, 3-(4-fluorophenyl)-6,7-dimethyl-1H-indole-2-carboxylic acid] the same measures were 398 nM, 7940 nM and 31.6 nM.
Turning to `Cc1cccc2c(-c3ccc4[nH]ncc4c3)c(C(=O)O)[nH]c12` [Example 19, 3-(1H-indazol-5-yl)-7-methyl-1H-indole-2-carboxylic acid], the IC50 in test [1] was 100 nM; on IMP-1 (Imipenemase-1), 5010 nM; in test [2] it was 31.6 nM.
